Consider two molecules from US9353088B2, “Crystalline pharmaceutical and methods of preparation and use thereof” (SARcode Bioscience Inc., priority 2009, dated 2016).

The data set can be described thus: Dynamic Vapor Sorption (DVS) analysis. The class given is physicochemical. The protocol: Dynamic Vapor Sorption (DVS) analysis was performed with a Surface Measurement Systems DVS-1 water vapor sorption analyzer. The experiments were run by placing the sample on a quartz holder on top of a microbalance, and allowing the sample to equilibrate at 50% relative humidity (r.h.) before starting the pre-defined humidity program. The program proceeded in the following steps: 1 hour at 50% r.h.; 50% to 0% r.h. at a rate of 5% r.h. change per hour; 5 hours at 0% r.h; 0% r.h to […]. at 5% r.h change per hour; 5 hours at 95% r.h.; 95% r.h. to 50% r.h. at a rate of 5% r.h. change per hour, and followed by one hour at 50% r.h.

Consider `CS(=O)(=O)c1cccc(C[C@H](NC(=O)c2c(Cl)cc3c(c2Cl)CCN(C(=O)c2ccc4ccoc4c2)C3)C(=O)O)c1` [Crystalline Form A], for which the “water content by DVS” value by setting is: (after mass loss at lowest relative humidity of 0.4%) 0.5 mole water per mole free acid; (at the start of the experiment) “about 0.9 mole water per mole free acid”; (mass gain at 95% relative humidity) 1.1 mole water per mole free acid.

Take `CS(=O)(=O)c1cccc(C[C@H](NC(=O)c2c(Cl)cc3c(c2Cl)CCN(C(=O)c2ccc4ccoc4c2)C3)C(=O)O)c1` [Crystalline Form B]: the hygroscopicity result (DVS, 50 hours, 5 hours at 95% relative humidity) is reported as “does not appear to be hygroscopic”.
